Test results as given in patent publication US20260226066A1, “PGDH INHIBITORS AND METHODS OF MAKING AND USING” (Epirium Bio Inc., priority 2023, published 2026).

What was measured:
[1] = tested on: A549; assay: A549 EC50 (cell assay, no method described); format: cell-based
[2] = target: T1, 15-PGDH/HPGD (Homo sapiens, UniProt P15428); assay: hPGDH inhibitor screening biochemical assay; conditions: 10 nM enzyme, fluorescence ex/em 340/485 nm
T1 construct: purchased R&D System 5660-DH
T1 sequence (P15428 1-266): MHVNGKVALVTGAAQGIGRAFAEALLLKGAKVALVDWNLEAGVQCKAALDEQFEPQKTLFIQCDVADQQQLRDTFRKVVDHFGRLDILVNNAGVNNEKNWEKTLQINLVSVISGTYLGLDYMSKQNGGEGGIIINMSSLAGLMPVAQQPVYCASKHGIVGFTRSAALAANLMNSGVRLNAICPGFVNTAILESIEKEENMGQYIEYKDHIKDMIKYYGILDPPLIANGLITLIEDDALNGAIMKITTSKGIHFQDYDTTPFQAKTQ
Protocol: A hydroxyprostaglandin dehydrogenase inhibition screening biochemical assay can be performed to assess the synthesized inhibitors provided herein. Provided herein is an exemplary biochemical assay for hPGDH inhibitor screening.
The in vitro biochemical assay can be performed in white, 384 plates in total 20 μl reaction volume consisting of 10 nM of 15-PGDH/HPGD (R&D System #5660-DH), 15 µM Prostaglandin E2 (Sigma, Cat #P5640-10MG) and 0.25 mM β-Nicotinamide adenine dinucleotide sodium salt (Sigma, Cat #N0632-5G) made in reaction buffer (50 mM Tris-HCl, pH 7.5, 0.01% Tween 20) at 10-point dose response curve for test/tool compounds. Briefly, 5 μl (4×) of compounds solution and 5 μl (final concentration, 10 nM) of enzyme solution is added to white 384 well plates and incubated for 10 mins at 37° C. 5 μl (4×) of Prostaglandin E2 and 5 μl (4×) of β-Nicotinamide adenine dinucleotide sodium salt is added to the wells and incubated for 10 mins at room temperature. Fluorescence is recorded at ex/em=340 nm/485 nm.

| Structure (SMILES) | EC50 ([1]; A549) | IC50 [2] | EC50 ([1]; Homo sapiens, A549, A549) |
| --- | --- | --- | --- |
| [O-][S+](CCC1CC1)c1cnc2c(ccn2-c2cccc(-c3nnc[nH]3)c2)c1 (single isomer, unassigned) [Compound 51A] | ≥ 1 µM | < 0.1 µM | – |
| COC1CC([S+]([O-])c2cnc3c(cnn3-c3cccc(-c4nnc[nH]4)c3)c2)C1 (single isomer, unassigned) [Compound 105A] | – | 0.1 to 1 µM | ≥ 1 µM |
| O=c1ccc(-c2cccc(-n3ncc4cc([S+]([O-])C5CCC5)cnc43)c2)c[nH]1 (stereo not drawn) [Compound 96A] | – | < 0.1 µM | ≥ 1 µM |
| O=C(O)c1ccc(-n2ccc3cc([S+]([O-])C4CCC4)cnc32)cc1 (single isomer, unassigned) [Compound 49A] | ≥ 1 µM | < 0.1 µM | – |
| Cc1nnc(-c2cccc(-n3ncc4cc([S+]([O-])C5CCC5)cnc43)c2)[nH]1 (stereo not drawn) [Compound 92A] | – | 0.1 to 1 µM | – |
| CCCC[S+]([O-])c1cnc2c(cnn2-c2cccc(-c3nnc[nH]3)c2)c1 (stereo not drawn) [Compound 43] | – | < 0.1 µM | 0.1 to 1 µM |
| CCOC(=O)Nc1cncc(-n2ncc3cc([S+]([O-])C4CCC(F)(F)CC4)cnc32)c1 (stereo not drawn) [Compound 39, Ethyl N-[5-[5-(4,4-difluorocyclohexyl)sulfinylpyrazolo[3,4-b]pyridin-1-yl]-3-pyridyl]carbamate] | – | < 0.1 µM | 0.1 to 1 µM |
| [O-][S+](c1cnc2c(cnn2-c2cccc(-c3ccc(O)nc3)c2)c1)C1CCC(F)(F)C1 (single isomer, unassigned) [Compound 5C] | 0.1 to 1 µM | < 0.1 µM | – |
| COCCC[S+]([O-])c1cnc2c(cnn2-c2ccc(N3CCOC3=O)nc2)c1 (single isomer, unassigned) [Compound 115B] | ≥ 1 µM | ≥ 1 µM | – |
| CC1CC([S+]([O-])c2cnc3c(cnn3-c3cccc(-c4nnc[nH]4)c3)c2)C1 (stereo not drawn) [Compound 120B] | ≥ 1 µM | < 0.1 µM | – |
| COc1ccc(-c2cccc(-n3ncc4cc([S+]([O-])C5CCC5)cnc43)c2)cn1 (stereo not drawn) [Compound 90B] | – | 0.1 to 1 µM | – |
| COCCC[S+]([O-])c1cnc2c(ccn2-c2cccc(-c3nnc[nH]3)c2)c1 (racemic) [Compound 55] | – | < 0.1 µM | 0.1 to 1 µM |
| CCCC[S+]([O-])c1cnc2c(cnn2-c2ccc(C(=O)O)cc2)c1 (stereo not drawn) [Compound 24A] | ≥ 1 µM | 0.1 to 1 µM | – |
| [O-][S+](CCCC(F)(F)F)c1cnc2c(cnn2-c2cccc(-c3nnc[nH]3)c2)c1 (stereo not drawn) [Compound 22B] | 0.1 to 1 µM | < 0.1 µM | – |
| Cc1nnc(-c2cccc(-n3ncc4cc([S+]([O-])C5CCC5)cnc43)c2)[nH]1 (stereo not drawn) [Compound 92B] | – | < 0.1 µM | 0.1 to 1 µM |
| [O-][S+](CCC1CC1)c1cnc2c(ccn2-c2cccc(-c3nnc[nH]3)c2)c1 (single isomer, unassigned) [Compound 51B] | < 0.1 µM | < 0.1 µM | – |
| [O-][S+](CC1CC1)c1cnc2c(cnn2-c2ccc(-c3nnc[nH]3)cc2)c1 (stereo not drawn) [Compound 46] | – | < 0.1 µM | 0.1 to 1 µM |
| COCCC[S+]([O-])c1cnc2c(cnn2-c2ccc(N3CCN(C)C3=O)nc2)c1 (single isomer, unassigned) [Compound 114B] | ≥ 1 µM | ≥ 1 µM | – |
| CC(C)CC[S+]([O-])c1cnc2c(ccn2-c2ccc(C(=O)O)cc2)c1 (single isomer, unassigned) [Compound 48B] | ≥ 1 µM | < 0.1 µM | – |
| O=S(=O)(c1cnc2c(ccn2-c2ccc(-c3nnc[nH]3)cc2)c1)C1CCCC1 [Compound 62] | – | < 0.1 µM | 0.1 to 1 µM |
| [O-][S+](c1cnc2c(ccn2-c2cccc(-c3nnc[nH]3)c2)n1)C1CCC1 (stereo not drawn) [Compound 111A] | – | < 0.1 µM | ≥ 1 µM |
| [O-][S+](c1cnc2c(cnn2-c2cccc(-c3nnc[nH]3)c2)c1)C1C[C@@H]2C[C@@H]2C1 (single isomer, unassigned) [Compound 123B] | < 0.1 µM | < 0.1 µM | – |
| [O-][S+](c1cnc2c(cnn2-c2cccc(-c3nnc[nH]3)c2)c1)C1CCC(F)(F)C1 (single isomer, unassigned) [Compound 8C] | < 0.1 µM | < 0.1 µM | – |
| CCOC(=O)Nc1cncc(-n2ccc3cc([S+]([O-])C4CCC(F)(F)CC4)cnc32)c1 (stereo not drawn) [Compound 73] | – | < 0.1 µM | < 0.1 µM |
| [O-][S+](c1cnc2c(ccn2-c2ccc(-c3nnc[nH]3)cc2)c1)C1CCOCC1 (stereo not drawn) [Compound 64] | – | < 0.1 µM | 0.1 to 1 µM |
| O=S(=O)(c1cnc2c(ccn2-c2cccc(-c3nnc[nH]3)c2)c1)C1CCCC1 [Compound 61] | – | < 0.1 µM | 0.1 to 1 µM |
| Cc1cc(-c2cccc(-n3ncc4cc([S+]([O-])C5CCC(F)(F)C5)cnc43)c2)ccn1 (stereo not drawn) [Compound 11C] | ≥ 1 µM | 0.1 to 1 µM | – |

| Structure (SMILES) | EC50 ([1]; A549) | IC50 [2] | EC50 ([1]; Homo sapiens, A549, A549) |
| --- | --- | --- | --- |
| Cc1nnc(-c2cccc(-n3ncc4cc([S+]([O-])C5CC(F)(F)C5)cnc43)c2)[nH]1 (stereo not drawn) [Compound 97A] | 0.1 to 1 µM | < 0.1 µM | – |
| CC(C)CC[S+]([O-])c1cnc2c(cnn2-c2ccc(CCCC(=O)O)c(F)c2)c1 (stereo not drawn) [Compound 127A] | – | 0.1 to 1 µM | – |
| COc1cc(-c2cccc(-n3ncc4cc([S+]([O-])C5CCC5)cnc43)c2)ccn1 (single isomer, unassigned) [Compound 93A] | – | < 0.1 µM | 0.1 to 1 µM |
| CC1(O)CC([S+]([O-])c2cnc3c(cnn3-c3cccc(-c4nnc[nH]4)c3)c2)C1 (stereo not drawn) [Compound 107A] | – | – | ≥ 1 µM |
| O=S(=O)(c1cnc2c(cnn2-c2ccc(-c3nnc[nH]3)cc2)c1)C1CCOCC1 [Compound 37] | – | ≥ 1 µM | – |
| O=c1cc(-c2cccc(-n3ncc4cc([S+]([O-])C5CCC5)cnc43)c2)cc[nH]1 (stereo not drawn) [Compound 94B] | – | 0.1 to 1 µM | – |
| [O-][S+](c1cnc2c(cnn2-c2cccc(-c3nnc[nH]3)c2)c1)C1CCC(F)(F)C1 (single isomer, unassigned) [Compound 8A] | – | ≥ 1 µM | – |
| CCOC(=O)Nc1cncc(-n2ncc3cc(C(=O)CC4CCC4)cnc32)c1 [Compound 42] | – | < 0.1 µM | – |
| COCC(C)(C)C[S+]([O-])c1cnc2c(cnn2-c2cccc(-c3nnc[nH]3)c2)c1 (single isomer, unassigned) [Compound 126A] | – | ≥ 1 µM | – |
| [O-][S+](c1cnc2c(cnn2-c2cccc(-c3ccc(N4CCOCC4)nc3)c2)c1)C1CCC1 (stereo not drawn) [Compound 95A] | – | < 0.1 µM | – |
| [O-][S+](c1cnc2c(cnn2-c2cccc(-c3ccc(N4CCOCC4)nc3)c2)c1)C1CCC1 (stereo not drawn) [Compound 95B] | – | 0.1 to 1 µM | – |
| [O-][S+](c1cnc2c(cnn2-c2ccc3nc(N4CCOCC4)nn3c2)c1)C1CC(F)(F)C1 (stereo not drawn) [Compound 117A] | – | < 0.1 µM | – |
| COCCC[S+]([O-])c1cnc2c(ccn2-c2cccc(-c3nnc[nH]3)c2)n1 (stereo not drawn) [Compound 103A] | – | 0.1 to 1 µM | – |
| [O-][S+](c1cnc2c(cnn2-c2cccc(-c3ccc(O)nc3)c2)c1)C1CCC(F)(F)C1 (single isomer, unassigned) [Compound 5D] | – | < 0.1 µM | – |
| COCC(C)(C)C[S+]([O-])c1cnc2c(cnn2-c2cccc(-c3nnc[nH]3)c2)c1 (single isomer, unassigned) [Compound 126B] | – | < 0.1 µM | – |
| COc1cc(-c2cccc(-n3ncc4cc([S+]([O-])C5CCC5)cnc43)c2)ccn1 (single isomer, unassigned) [Compound 93B] | – | ≥ 1 µM | – |
| CCCC[S+]([O-])c1cnc2c(cnn2-c2cc(F)cc(NC(=O)OCC)c2)c1 (stereo not drawn) [Compound 27B] | – | ≥ 1 µM | – |
| [O-][S+](c1cnc2c(cnn2-c2cccc(-c3nnc[nH]3)c2)c1)C1CCC(F)(F)C1 (single isomer, unassigned) [Compound 8B] | – | 0.1 to 1 µM | – |
| [O-][S+](c1cnc2c(cnn2-c2cccc(-c3ccnc(N4CCOCC4)c3)c2)c1)C1CCC1 (stereo not drawn) [Compound 91B] | – | 0.1 to 1 µM | – |
| CC(C)OC[S+]([O-])c1cnc2c(cnn2-c2cccc(-c3nnc[nH]3)c2)c1 (single isomer, unassigned) [Compound 2A, 1-(3-(4H-1,2,4-triazol-3-yl)phenyl)-5-((isopropoxymethyl)sulfinyl)-1H-pyrazolo[3,4-b]pyridine] | – | 0.1 to 1 µM | – |
| [O-][S+](c1cnc2c(cnn2-c2cccc(-c3nnc[nH]3)c2)c1)C1CC(F)(F)C1 (single isomer, unassigned) [Compound 7A] | – | 0.1 to 1 µM | – |
| CC(C)CC[S+]([O-])c1cnc2c(cnn2-c2ccc(CCCC(=O)O)c(F)c2)c1 (stereo not drawn) [Compound 127B] | – | < 0.1 µM | – |
| [O-][S+](c1cnc2c(cnn2-c2cccc(-c3ccnc(N4CCOCC4)c3)c2)c1)C1CCC1 (stereo not drawn) [Compound 91A] | – | < 0.1 µM | – |
| CCOC(=O)Nc1cncc(-n2ccc3cc([S+]([O-])C4CC4)cnc32)c1 (stereo not drawn) [Compound 67] | – | < 0.1 µM | – |
| [O-][S+](c1cnc2c(cnn2-c2cccc(-c3ccc(O)nc3)c2)c1)C1CCC(F)(F)C1 (single isomer, unassigned) [Compound 5B] | – | ≥ 1 µM | – |
| CC(=O)Nc1cccc(-c2cncc(-n3ncc4cc([S+]([O-])C5CCCC5)cnc43)c2)c1 (single isomer, unassigned) [Compound 14B] | – | 0.1 to 1 µM | – |
| [O-][S+](c1cnc2c(cnn2-c2ccc3nc(N4CCOCC4)nn3c2)c1)C1CC(F)(F)C1 (stereo not drawn) [Compound 117B] | – | 0.1 to 1 µM | – |
